Patent publication US12497399B2, “Fluorinated integrin antagonists” (OcuTerra Therapeutics, Inc., priority 2013, dated 2025)

How the values were obtained:
[1] = Distribution in plasma, aqueous humor, vitreous humor and retina after topical ocular administration; assay type: in vivo, Dutch Belted rabbits; settings: 50 μL/eye, 1.0-2.5 mg/mL, 0.5 or 1.0 and 8 hours, FIGS. 2, 3, 4
Method: The plasma concentrations and ocular distribution (aqueous humor, vitreous humor, and retina) of Compounds A1, A2, and A3 were determined following topical ocular administration in Dutch Belted rabbits. […] Aqueous humor, vitreous humor, and retina were collected from each eye at each time point post-dose. Also, weights were recorded. Plasma and ocular sample concentrations of the compounds were determined by LC-MS/MS.
Animal Dosing: The exposure of compounds A1, A2, and A3 was evaluated in Dutch Belted rabbits. The study was not blinded. Each compound was dosed as n=3/time point for a total of nine rabbits. Rabbits were housed one per cage. Animals were not fasted, and food and water were supplied ad libitum.
Animals were anesthetized following the 13IA5 IACUC protocol for the dosing. Each rabbit received a bolus dose of test formulation via topical ocular administration into both eyes at time zero on the day of dosing. Plasma and ocular samples were collected at pre-determined time points. Animals for the 30-minute and 1-hour time points were anesthetized for the entire duration of the study. The animals for the 8-hour time point were recovered after dosing and then euthanized for sampling purposes.
At each time point, approximately 0.5 mL of blood was collected and placed into chilled Na-heparin tubes containing citric acid. Blood samples were centrifuged at a speed of 3,000 g for 5 minutes to obtain plasma as quickly as possible. Samples were stored frozen at −80° C. until analysis. Animals were euthanized per the 13IA5 IACUC protocol and both eyes were enucleated immediately. Following enucleation, each eye was rinsed with PBS. Ocular samples from both eyes of each animal were collected and weights were recorded. All the samples were frozen immediately on dry ice, and stored at −60 to −80° C. for analysis.
Analysis of Plasma and Ocular Samples: An LC-MS/MS method was developed for the determination of Compounds A1, A2, and A3 in rabbit plasma and ocular samples.

[2] = test system: αv integrin; test: Cell adhesion assay: RLMVEC adhesion to vitronectin coated plates; assay type: cell-based; settings: rat lung microvascular endothelial cells, 1.5 h at 37° C., read-out: IC50 to block adhesion of RLMVEC to vitronectin
Method: (§1) The ability of compounds to block adhesion of three primary cell cultures: human dermal microvascular endothelial (HMVEC), rat lung microvascular endothelial (RLMVEC), and rabbit aortic endothelial (RAEC) cells, to vitronectin coated plates was determined using the following procedure.
(§2) Adhesion plates preparation. 96-well plates were coated with vitronectin in PBS, pH 7.4 by incubating 50 μL of the solution (10 μg/ml) for 1.5 h at room temperature or overnight at 4° C. The plates then were blocked with 1% BSA in PBS (30 min at room temperature) and washed with PBS.
(§3) Cell culturing and loading. HMVEC cells (passages (p)9-14) (from Lonza, Allendale, NJ) RLMVEC cells (p4-14) (from Vec Technology, Rensselaer, NY) and RAEC cells (p4-14) (from CellBiologics, Chicago, IL) were used for the compound testing. Cells were grown in T175 tissue culture flasks and dislodged by gentle 3 min treatment with Accutase (Life Technologies). After washing, the cells in suspension in RPMI-1640 (Life Technologies) were loaded with calcein-AM (5 μM) (Life Technologies) for 30 min at 37° C. and re-suspended into RPMI w/o phenol red medium containing 10% FBS.
(§4) Adhesion assay. The cell suspension was aliquoted into the wells at a density of 1.0×10^5 cells/well (RLMVEC) and 5.0×10^4 (HMVEC, and RAEC). The test compounds are added at the same time with the cells. The plates are incubated for 1.5 h at 37° C. […] The wash was performed by 2 cycles of aspiration of the supernatant and addition of 100 μL of the pre-warmed fresh DPBS (Life Technologies). A fluorescence of the remaining cells is measured using multimode plate reader (Victor 2V, PerkinElmer) at an excitation/emission wavelengths of 485/535 nm. The compounds were tested starting with maximal concentration of 1 μM with half-log dilution schedule. IC50 values were calculated with Prism 5 (GraphPad, CA) by fixing the bottom of the curves to a value of blank for empty wells fluorescence.

[3] = test system: laser-induced choroidal neovascularization; test: Laser-induced choroidal neovascularization (CNV) model; assay type: in vivo, Dutch Belted rabbits; settings: twice daily topical administration, 50 μL; fluorescein angiography day 35; FIG. 5
Method: Healthy male animals weighing between 1.5 and 2.0 kg were used in these studies. Animals were weighed prior to dosing and at euthanasia, and more often if needed. Baseline fundus photography and fluorescein angiography was performed on each animal prior to CNV induction.
Animals were anesthetized with an intramuscular injection of ketamine hydrochloride (20 mg/kg) and xylazine (2 mg/kg) for CNV induction, fundus photography, fluorescein angiography, and intravitreal (IVT) injections. Rabbits were maintained on isoflurane (approximatelyl to 3%) in oxygen (approximately 1 to 2 L/min) as necessary. One drop of topical proparacaine hydrochloride anesthetic (0.5%) was placed in each eye before procedures. Additional topical ocular anesthesia was utilized during the procedure if needed.
CNV was induced by laser photocoagulation treatment. […]
Clinical ophthalmic exams (slit-lamp biomicroscopy and indirect ophthalmoscopy), fundus photography, and fluorescein angiography were performed at baseline and then weekly for up to 6 weeks post-induction. Exams were scored using the McDonald-Shadduck Score System. […]
At the conclusion of the study, animals were euthanized per the 13C232Q3 IACUC protocol and both eyes enucleated immediately. […] Ocular samples (aqueous humor, vitreous humor retina and choroid) from both eyes of each animal were collected and weights were recorded. […]

[4] = target: T1, αv integrin (Homo sapiens, UniProt P06756); test: Cell adhesion assay: HMVEC adhesion to vitronectin coated plates; assay type: cell-based; settings: human dermal microvascular endothelial cells, 1.5 h at 37° C., read-out: IC50 to block adhesion of HMVEC to vitronectin
T1 construct: three primary cell cultures; host or cells: HMVEC primary human dermal microvascular endothelial cells, passages 9-14
Method: as §1, §2, §3, §4

[5] = test system: αv integrin; test: Cell adhesion assay: RAEC adhesion to vitronectin coated plates; assay type: cell-based; settings: rabbit aortic endothelial cells, 1.5 h at 37° C., read-out: IC50 to block adhesion of RAEC to vitronectin
Method: as §1, §2, §3, §4

[6] = test system: chick chorioallantoic membrane (CAM); test: Chick chorioallantoic membrane (CAM) anti-angiogenic assay; assay type: in vivo; settings: gelatin sponge graft with test compound and 50 ng VEGF; FIG. 1
Method: CAM surfaces were grafted with gelatin sponges impregnated with the concentrations of test compounds and 50 ng VEGF dissolved in PBS. Untreated CAM received only VEGF and PBS. Error bars represent SEM, N=5, P values for the treated groups were calculated by comparing with the untreated group (*p<0.05, **p<0.01, ***p<0.001). Test Substance Preparation: Test samples and standards were dissolved in PBS and sterilized by passing through a syringe filter (0.22 μm). hVEGF(SIGMA) 50 ng/μl was prepared in sterile PBS. Grafting: Gelatin sponge (Abogel) was cut in approximately 2 mm^3 pieces and loaded with required test substance or PBS and VEGF. The graft was placed on the CAM. Eggs: Fertile hen eggs were procured from a hatchery and were cleaned and decontaminated using alcohol. 1 ml of albumin was removed using a syringe and incubated for 8 days. Grafts were placed on developing CAMs and further incubated to day 12. On day 12, CAMs were fixed with 4% formaldehyde in PBS, dissected and imaged. Imaging: Fixed CAMs were imaged under constant illumination and magnification under a stereomicroscope fitted with a digital camera (CANON). Image analysis: Images were analyzed on MS PowerPoint keeping the image size constant. A ring was drawn around the graft and the size was kept constant. Blood vessels crossing the ring were counted for each test group.

T1 sequence (P06756 31-1048): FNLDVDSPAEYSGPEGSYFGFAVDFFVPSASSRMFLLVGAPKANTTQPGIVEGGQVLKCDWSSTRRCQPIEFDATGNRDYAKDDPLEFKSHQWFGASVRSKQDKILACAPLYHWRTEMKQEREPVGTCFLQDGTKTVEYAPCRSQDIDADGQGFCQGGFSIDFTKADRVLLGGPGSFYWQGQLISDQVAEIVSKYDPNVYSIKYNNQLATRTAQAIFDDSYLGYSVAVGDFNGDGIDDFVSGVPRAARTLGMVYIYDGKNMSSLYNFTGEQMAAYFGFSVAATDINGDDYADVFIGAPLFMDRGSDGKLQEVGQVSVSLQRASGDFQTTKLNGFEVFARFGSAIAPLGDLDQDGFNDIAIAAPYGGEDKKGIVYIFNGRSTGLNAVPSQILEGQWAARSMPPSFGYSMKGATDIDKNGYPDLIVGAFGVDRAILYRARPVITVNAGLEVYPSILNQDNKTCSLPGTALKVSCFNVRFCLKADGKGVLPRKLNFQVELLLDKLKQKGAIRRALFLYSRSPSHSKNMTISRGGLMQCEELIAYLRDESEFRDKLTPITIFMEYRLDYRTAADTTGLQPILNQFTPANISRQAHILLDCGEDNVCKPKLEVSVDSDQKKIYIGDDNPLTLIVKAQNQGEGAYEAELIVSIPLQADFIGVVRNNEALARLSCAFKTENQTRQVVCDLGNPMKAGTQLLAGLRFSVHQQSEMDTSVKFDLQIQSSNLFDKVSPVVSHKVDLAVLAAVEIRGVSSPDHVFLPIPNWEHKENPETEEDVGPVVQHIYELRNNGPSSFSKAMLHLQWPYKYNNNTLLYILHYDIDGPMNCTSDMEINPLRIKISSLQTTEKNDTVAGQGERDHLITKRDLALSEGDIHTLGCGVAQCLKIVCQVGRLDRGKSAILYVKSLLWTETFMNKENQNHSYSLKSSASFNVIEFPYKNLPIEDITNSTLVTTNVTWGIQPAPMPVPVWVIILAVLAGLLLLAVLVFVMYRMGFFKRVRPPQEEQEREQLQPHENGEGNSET

Row | SMILES | distribution to the retina [1] | IC50 [2] | IC50 [4] | IC50 [5] | reduction of laser-induced choroidal neovascularization vs vehicle control [3] | anti-angiogenic activity: number of blood vessels vs untreated control [6]
1 | O=C(O)C[C@@H](c1ccc(OC(F)F)nc1)N1CCN(CCCc2ccc3c(n2)NCCC3)C1=O [Compound A1, (S)-3-(6-(difluoromethoxy)pyridin-3-yl)-3-(2-oxo-3-(3-(5,6,7,8-tetrahydro-1,8-naphthyridin-2-yl)propyl)imidazolidin-1-yl)propanoic acid] | efficiently distributed to the retina | 0.031 µM | 0.0094 µM | 0.0084 µM | effectively reduced laser-induced choroidal neovascularization | significantly decreases the number of blood vessels
2 | O=C(O)CC(CCCCCCc1ccc2c(n1)NCCC2)c1cnc(C(F)(F)F)nc1 (stereo not shown) [Compound A2, 9-(5,6,7,8-tetrahydro-1,8-naphthyridin-2-yl)-3-(2-(trifluoromethyl)pyrimidin-5-yl)nonanoic Acid] | efficiently distributed to the retina | 0.068 µM | 0.16 µM | 0.016 µM | effectively reduced laser-induced choroidal neovascularization | significantly decreases the number of blood vessels
3 | O=C(O)CC(CCCCCCc1ccc2c(n1)NCCC2)c1ccc(OC(F)F)nc1 (stereo not shown) [Compound A3, 3-(6-(difluoromethoxy)pyridin-3-yl)-9-(5,6,7,8-tetrahydro-1,8-naphthyridin-2-yl)nonanoic Acid] | efficiently distributed to the retina | 0.23 µM | 0.62 µM | 0.059 µM |  | 
4 | O=C(O)CC(CCCCCCc1ccc2c(n1)NCCC2)c1cnc2ccc(F)cc2c1 (stereo not shown) [Compound A4, 3-(6-fluoroquinolin-3-yl)-9-(5,6,7,8-tetrahydro-1,8-naphthyridin-2-yl)nonanoic Acid] |  | 0.032 µM | 0.042 µM | 0.0085 µM |  | 

Further lines, with some results ahead:

Row | distribution to the retina [1] | IC50 [2] | IC50 [4] | IC50 [5] | SMILES | reduction of laser-induced choroidal neovascularization vs vehicle control [3] | anti-angiogenic activity: number of blood vessels vs untreated control [6]
5 |  | 0.037 µM | 0.25 µM | 0.02 µM | O=C(O)CC(CCCCCCc1ccc2c(n1)NCCC2)c1cnc2cc(F)ccc2c1 (stereo not shown) [Compound A5, 3-(7-fluoroquinolin-3-yl)-9-(5,6,7,8-tetrahydro-1,8-naphthyridin-2-yl)nonanoic Acid] |  | 
6 |  | 0.0055 µM | 0.044 µM | 0.044 µM | O=C(O)CC(CCCCCCc1ccc2c(n1)NCCC2)c1cnc2cc(F)c(F)cc2c1 (stereo not shown) [Compound A6, 3-(6,7-difluoroquinolin-3-yl)-9-(5,6,7,8-tetrahydro-1,8-naphthyridin-2-yl)nonanoic Acid] |  | 
7 |  | 0.4 µM | 0.13 µM | 0.21 µM | O=C(O)CC(CCCCCCc1ccc2c(n1)NCCC2)c1cnc2cc(C(F)(F)F)ccc2c1 (stereo not shown) [Compound A7, 9-(5,6,7,8-tetrahydro-1,8-naphthyridin-2-yl)-3-(7-(trifluoromethyl)quinolin-3-yl)nonanoic Acid] |  | 
